Structures can show the parent of a compound that is named as a salt. Where two headings read alike, the source gives them in different places.

The subject of experiment [1] is MYB mRNA. In words: Splicing RT-qPCR assay, MYB canonical (CJ) and alternative (AJ) junction mRNA. It counts as cell-based, human. The settings on record: Homo sapiens; for IC50: canonical junction mRNA; for AC50: alternative junction mRNA, read-out: MYB AJ (AC50, increase in AJ mRNA). A digest of the protocol: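 One-step RT-qPCR on cell lysates quantified CJ and AJ isoforms, normalized to PPIA for A673 or GAPDH/GUSB for K562. Cells were exposed for 24 h at 37° C to 11 concentrations in 3-fold steps up to 10 uM, with DMSO ≤0.25%. A673 were grown in DMEM and K562 in IMDM, both with 10% FBS.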
For orientation: Real-time PCR tracks product formation cycle by cycle.

Experiment [2] concerns HiBiT-tagged MYB protein. Description: HiBiT protein abundance assay, MYB (K562 HiBiT knock-in). It is filed as cell-based, human. The settings on record: HiBiT knock-in cells, 24 hours. An outline of the steps: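 Endogenously HiBiT-tagged K562 knock-in lines treated 24 h at 37 °C with 10-point 3-fold dilutions (top 10 μM final, DMSO ≤0.25%) in IMDM+1% FBS. Lytic Nano-Glo luminescence normalized to DMSO and unmodified K562 controls; four-parameter fit gives 50%-abundance concentration (IC50).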
On the technique in general: With HiBiT, luminescence reflects the tagged protein that the partner subunit can reach.

Setting [3] is: qPCR panel, read-out: MYB CJ (decrease in CJ mRNA levels, IC50).
[4] abbreviates: RT-qPCR, A673 or K562 cells, 24 hours treatment.
[5] abbreviates: RT-qPCR, A673 or K562 cells, 24 hours treatment, read-out: MYB CJ (IC50, decrease in CJ mRNA).

As usually defined, the IC50 is the concentration at which inhibition is half-maximal. By AC50 is commonly meant the midpoint of the concentration-response curve, whichever way the signal moves. As to `C[C@@H]1CN(c2cnc3nc(-c4cc5cn(C)nc5c(F)c4O)cc(C#N)c3c2)C[C@H](C)N1` [Compound 266, 6-[(3R,5S)-3,5-dimethylpiperazin-1-yl]-2-(7-fluoro-6-hydroxy-2-methylindazol-5-yl)-1,8-naphthyridine-4-carbonitrile hydrochloride], the half-maximal inhibitory concentration (IC50) in experiment [1] (setting [3]), in experiment [1] (setting [5]) and in experiment [2] was less than 100 nM throughout. In addition, the half-maximal activity concentration (AC50) in experiment [1] (setting [4]) lay in the range of 100 to 1000 nM.

`CN[C@@H]1CCN(c2cnc3nc(-c4cc5cn(C)nc5c(F)c4O)cc(Cl)c3c2)C1` [Compound 271]: the IC50 in experiment [1] (setting [3]), in experiment [1] (setting [5]) and in experiment [2] was less than 100 nM throughout. The concentration at half-maximal activity (AC50) in experiment [1] (setting [4]) is less than 100 nM.

These data come from patent publication US20250326748A1, “COMPOUNDS AND METHODS FOR MODULATING SPLICING” (REMIX THERAPEUTICS INC., priority 2022, published 2025).
